Where two headings read alike, the source gives them in different places. Each block holds one compound with its values, some of them ahead of it.
How the values were obtained:
[1] = test system: A2780 cells; assay: MTT reduction assay, early toxicity, 4 h treatment; format: cell-based; conditions: inhibition at maximum concentration (100 μM) where no plateau, ND = not detectable; for inhibition at 100 µM: Homo sapiens, read-out: A2780 MTT Max Inhibition
Method: (§1) The complexes described above are intended to replace registered platinum complexes. Platinum complexes constitute the core of the chemotherapy regimen used in ovarian cancer; therefore, we used a cellular model of ovarian cancer, A2780, and primary human dermal fibroblasts as models of non-transformed cells (controls). For the characterization of the complexes, we used an MTT assay after 4 h of treatment for the detection of early toxicity and an SRB assay 48 h after treatment for the detection of cytostasis.
An MTT reduction assay was measures the activity of mitochondrial complex I and can be used to detect toxicity. The assay was performed in a manner similar to that described in [84]. Briefly, cells were plated in 96-well plates the day before the assay. Cells were treated with the compounds for 4 h; then, MTT was added to a 0.5 mg/mL final concentration, and cells were incubated at 37 °C in a cell incubator for 40–60 min as a function of the cell line being assessed. Culture medium was removed, the reduced MTT dye was dissolved in dimethyl-sulfoxide, and plates were measured in a plate photometer (Thermo Scientific Multiscan GO spectrophotometer, Waltham, MA, USA) at 540 nm. On each plate, wells were designed to contain vehicle-treated cells. In calculations, the readings for these wells were considered to 1, and all readings were expressed relative to these values.
(§2) Statistical analysis was performed using version 8.0.1 of GraphPad Prism. Values were tested for normal distribution using the Shapiro–Wilk normality test. Nonlinear regression was performed using the built-in “[Inhibitor] vs. response—Variable slope (four parameters), least square fit” utility of GraphPad, which yielded IC50 and Hill slope values if the sigmoid curves reached a plateau of inhibition and there was no decrease between two subsequent data points or when inhibition was over 90%. In other cases, the percentage of inhibition was taken for the maximum concentration (100 μM).

[2] = test system: A2780 cells; assay: SRB binding assay, cytostasis, 48 h treatment; format: cell-based; conditions: up to 100 μM, ND = not detectable
Method: as §1
An SRB assay measures protein content of cells in correlation with the cell number in an assay well and can therefore be used to assess cell proliferation or long-term cytostasis. Cells were seeded in 96-well plates the day before the assay. Cells were treated with the compounds for 48 h. Then medium was removed, and cells were fixed with 10% trichloroacetic acid. Fixed cells were washed in distilled water 3 times, followed by staining with SRB (0.4 m/V% dissolved in 1% acetic acid) for 10 min. Stained cells were washed in 1% acetic acid 5 times; acetic acid was removed, and cells were left to dry. Protein-bound SRB was released by adding 100 μL 10 mM Tris base. Plates were measured in a plate photometer (Thermo Scientific Multiscan GO spectrophotometer, Waltham, MA, USA) at 540 nm. On each plate, wells were designed to contain vehicle-treated cells. In calculations, the readings for these wells were considered to be 1, and all readings were expressed relative to these values.
as §2

[3] = Distribution coefficient (logD), n-octanol-PBS; format: physicochemical; conditions: n-octanol-PBS (pH = 7.4) system
Method: The logD values of the newly synthesized complexes were determined according to a procedure described in our previous publications. page 64: Ir-7b +1.17 Rh-7b +1.41 Ru-7c +1.31 Os-7c +1.59 Ir-7c +1.40 Rh-7c +1.13 Ru-7d +1.26 Os-7d +1.42 Ir-7d +1.30 Rh-7d +1.04 Ru-7e +2.22 Os-7e +2.21 Ir-7e +1.39 Rh-7e +1.66 *logD was determined in an n-octanol-PBS (pH = 7.4) system 64 (14 pictures or pasted objects on this page, not shown here)

[4] = test system: Enterococcus faecalis (ATCC29212); assay: Broth microdilution MIC, reference strain; format: cell-based; conditions: 24 h, tested range 0.08–40 μM, read-out: MIC E. faecalis ATCC 29,212
Method: (§3) The reference strains of Staphylococcus aureus (ATCC29213) and Enterococcus faecalis (ATCC29212) were purchased from the ATCC (Manassas, VA, USA).
(§4) Microdilution experiments were performed according to the standards of EUCAST [85]. The bacterial isolates to be tested were grown on Mueller–Hinton agar plates. The inoculum density of bacteria was set at 5.0 × 10^5 CFU/mL in microtiter plates in a final volume of 200 μL Mueller–Hinton broth. The tested concentration range was 0.08–40 μM (10 concentrations, twofold serial dilutions), and a drug-free growth control and an inoculum-free negative control were included. The inoculated plates were incubated for 24 h at 37 °C, then visually assessed. Minimum inhibitory concentration (MIC) was defined as the lowest concentration with a 50%≤ inhibitory effect compared to the growth control. All experiments were performed at least twice in duplicate.

[5] = test system: Staphylococcus aureus (ATCC29213); assay: Broth microdilution MIC, reference strain; format: cell-based; conditions: 0.08–40 μM, read-out: MIC S. aureus ATCC 29213
Method: as §3, §4

[6] = test system: vancomycin-resistant Enterococcus (VRE) clinical isolates; assay: Broth microdilution MIC, clinical VRE isolates; format: cell-based, E. faecium; conditions: 24 h, 0.08–40 μM
Method: (§5) We used a set of clinical isolates of S. aureus and E. faecium that were collected at the Medical Center of the University of Debrecen (Hungary) between 1 January 2018. and 31 December 2020. The clinical isolates were identified using a Microflex MALDI-TOF mass spectrometer (Bruker, Billerica, MA, USA). The antibiotic susceptibility of the isolates was tested following the European Committee on Antimicrobial Susceptibility Testing (EUCAST) guidelines, which were valid at the time of collection.
as §4

[7] = test system: methicillin-resistant Staphylococcus aureus (MRSA) clinical isolates; assay: Broth microdilution MIC, clinical MRSA isolates; format: cell-based; conditions: 24 h, 0.08–40 μM
Method: as §5, §4

[8] = Staphylococcus aureus, ATCC29213, 24 h
[9] = Enterococcus, clinical isolate 25,051 VRE, read-out: MIC 25,051 VRE
[10] = Enterococcus, clinical isolate 25,498 VRE, read-out: MIC 25,498 VRE
[11] = Enterococcus, clinical isolate 27,085 VRE, read-out: MIC 27,085 VRE
[12] = Staphylococcus aureus, clinical isolate 20,426 MRSA, read-out: MIC 20,426 MRSA
[13] = Staphylococcus aureus, clinical isolate 24,035 MRSA, read-out: MIC 24,035 MRSA
[14] = Staphylococcus aureus, clinical isolate 24,268 MRSA, read-out: MIC 24,268 MRSA
[15] = Staphylococcus aureus, clinical isolate 24,272 MRSA, read-out: MIC 24,272 MRSA
[16] = Staphylococcus aureus, clinical isolate 24,328 MRSA, read-out: MIC 24,328 MRSA
[17] = Staphylococcus aureus, clinical isolate 24,408 MRSA, read-out: MIC 24,408 MRSA

logD [3]: −1.91
Compound: Cc1ccc(C(C)C)cc1.F[P-](F)(F)(F)(F)F.N[C@@H]1[C@@H](O)[C@H](O)[C@@H](CO)O[C@H]1c1ccccn1.[Cl][Ru+] [Ru-5a]
A2780 MTT Max Inhibition [1]: did not exhibit any biological activity
A2780 SRB Max Inhibition [2]: did not exhibit any biological activity

MIC ([4]; Enterococcus faecalis): > 40 µM
MIC [5, 8]: > 40 µM
MIC [6, 9]: > 40 µM
MIC [6, 10]: > 40 µM
MIC [6, 11]: > 40 µM
MIC [7, 12]: > 40 µM
MIC [7, 13]: > 40 µM
MIC [7, 14]: > 40 µM
MIC [7, 15]: > 40 µM
MIC [7, 16]: > 40 µM
MIC [7, 17]: > 40 µM
Compound: N[C@@H]1[C@@H](OCc2ccccc2)[C@H](OCc2ccccc2)[C@@H](COCc2ccccc2)O[C@H]1c1cnccn1 [Complex 3d, 2-(2′-Amino-2′-deoxy-3′,4′,6′-tri-O-benzyl-β-D-glucopyranosyl)pyrazine]
A2780 MTT Max Inhibition [1]: no activity

logD [3]: 2.22
MIC [4]: >40 µM
MIC ([5]; 24 h): >40 µM
MIC ([6]; clinical isolate 25,051 VRE, read-out: MIC 25,051 VRE): >40 µM
MIC ([6]; clinical isolate 25,498 VRE, read-out: MIC 25,498 VRE): >40 µM
MIC ([6]; clinical isolate 27,085 VRE, read-out: MIC 27,085 VRE): >40 µM
MIC ([7]; clinical isolate 20,426 MRSA, read-out: MIC 20,426 MRSA): >40 µM
MIC ([7]; clinical isolate 24,035 MRSA, read-out: MIC 24,035 MRSA): >40 µM
MIC ([7]; clinical isolate 24,268 MRSA, read-out: MIC 24,268 MRSA): >40 µM
MIC ([7]; clinical isolate 24,272 MRSA, read-out: MIC 24,272 MRSA): >40 µM
MIC ([7]; clinical isolate 24,328 MRSA, read-out: MIC 24,328 MRSA): >40 µM
MIC ([7]; clinical isolate 24,408 MRSA, read-out: MIC 24,408 MRSA): >40 µM
Compound: Cc1ccc(C(C)C)cc1.F[P-](F)(F)(F)(F)F.N[C@@H]1[C@@H](OC(=O)c2ccccc2)[C@H](OC(=O)c2ccccc2)[C@@H](COC(=O)c2ccccc2)O[C@H]1c1ccc2ccccc2n1.[Cl][Ru+] [Ru-7e]
A2780 MTT Max Inhibition [1]: 27.04%
A2780 SRB Max Inhibition [2]: 67.50%

logD [3]: 1.42
Compound: Cc1ccc(C(C)C)cc1.F[P-](F)(F)(F)(F)F.N[C@@H]1[C@@H](OC(=O)c2ccccc2)[C@H](OC(=O)c2ccccc2)[C@@H](COC(=O)c2ccccc2)O[C@H]1c1cnccn1.[Cl][Os+] [Os-7d]
A2780 MTT Max Inhibition [1]: 46.72%
A2780 SRB Max Inhibition [2]: 80.44%

Compound: N[C@@H]1[C@@H](OC(=O)c2ccccc2)[C@H](OC(=O)c2ccccc2)[C@@H](COC(=O)c2ccccc2)O[C@H]1c1ncccn1 [Complex 7c, 2-(2′-Amino-2′-deoxy-3′,4′,6′-tri-O-benzoyl-β-D-glucopyranosyl)pyrimidine]
inhibition at 100 µM [1]: 26.3%
A2780 SRB Max Inhibition [2]: 79.53%

logD [3]: 1.04
Compound: Cc1c(C)c(C)[c-](C)c1C.F[P-](F)(F)(F)(F)F.N[C@@H]1[C@@H](OC(=O)c2ccccc2)[C@H](OC(=O)c2ccccc2)[C@@H](COC(=O)c2ccccc2)O[C@H]1c1cnccn1.[Cl][Rh+2] [Rh-7d]
A2780 MTT Max Inhibition [1]: 18.08%
A2780 SRB Max Inhibition [2]: 64.76%

Compound: N[C@@H]1[C@@H](OC(=O)c2ccccc2)[C@H](OC(=O)c2ccccc2)[C@@H](COC(=O)c2ccccc2)O[C@H]1c1cnccn1 [Complex 7d, 2-(2′-Amino-2′-deoxy-3′,4′,6′-tri-O-benzoyl-β-D-glucopyranosyl)pyrazine]
inhibition at 100 µM [1]: 18.1%
A2780 SRB Max Inhibition [2]: 73.37%

logD [3]: 1.26
Compound: Cc1ccc(C(C)C)cc1.F[P-](F)(F)(F)(F)F.N[C@@H]1[C@@H](OC(=O)c2ccccc2)[C@H](OC(=O)c2ccccc2)[C@@H](COC(=O)c2ccccc2)O[C@H]1c1cnccn1.[Cl][Ru+] [Ru-7d]
A2780 MTT Max Inhibition [1]: 64.04%
A2780 SRB Max Inhibition [2]: 80.44%

logD [3]: 1.30
Compound: Cc1c(C)c(C)[c-](C)c1C.F[P-](F)(F)(F)(F)F.N[C@@H]1[C@@H](OC(=O)c2ccccc2)[C@H](OC(=O)c2ccccc2)[C@@H](COC(=O)c2ccccc2)O[C@H]1c1cnccn1.[Cl][Ir+2] [Ir-7d]
A2780 MTT Max Inhibition [1]: 38.71%
A2780 SRB Max Inhibition [2]: 80.44%

Compound: N[C@@H]1[C@@H](O)[C@H](O)[C@@H](CO)O[C@H]1c1ccccn1 [Complex 5a, 2-(2′-Amino-2′-deoxy-β-D-glucopyranosyl)pyridine]
A2780 MTT Max Inhibition [1]: did not exhibit any biological activity
A2780 SRB Max Inhibition [2]: did not exhibit any biological activity

MIC ([4]; Enterococcus faecalis): > 40 µM
MIC [5, 8]: > 40 µM
MIC [6, 9]: > 40 µM
MIC [6, 10]: > 40 µM
MIC [6, 11]: > 40 µM
MIC [7, 12]: > 40 µM
MIC [7, 13]: > 40 µM
MIC [7, 14]: > 40 µM
MIC [7, 15]: > 40 µM
MIC [7, 16]: > 40 µM
MIC [7, 17]: > 40 µM
Compound: N[C@@H]1[C@@H](OC(=O)c2ccccc2)[C@H](OC(=O)c2ccccc2)[C@@H](COC(=O)c2ccccc2)O[C@H]1c1ccc2ccccc2n1 [Complex 7e, 2-(2′-Amino-2′-deoxy-3′,4′,6′-tri-O-benzoyl-β-D-glucopyranosyl)quinoline]
inhibition at 100 µM [1]: 13.6%
A2780 SRB Max Inhibition [2]: 45.20%
